Patent publication US20160101148A1, “TREATMENT AND PREVENTION OF BACTERIAL SKIN INFECTIONS USING ORITAVANCIN” (priority 2013, published 2016)

How the values were obtained:
[1] = tested on: S. aureus strains (14 mecC MRSA, 2 mecA MRSA, ATCC 29213 MSSA); assay: In vitro time-kill assays at free peak and free trough concentrations; assay type: cell-based, Staphylococcus aureus
Experimental: Viable cell count was determined by serial dilution plating, including the use of 25 g/L charcoal suspension to limit antibiotic carryover. […] Time-kill assays were repeated at least twice independently; results presented are from a representative experiment.
Doubling dilution concentrations of comparator agents were likewise chosen to approximate their fCmax and fCmin levels in plasma when administered at approved dosages for complicated skin and skin structure infections, using pharmacokinetic data and protein binding values from their respective package inserts (DAP [Cubicin®]; LZD [Zyvox®]; VAN [Vancocin®]; Table 3).

[2] = tested on: ABSSSI caused by susceptible gram-positive bacteria, including MRSA; assay: SOLO II Phase 3 trial, efficacy; assay type: in vivo, human; details: for FDA primary endpoint: Cessation of spread, absence of fever, no rescue antibiotics / ≧20% reduction of lesion area / FDA primary endpoint: Cessation of spread, absence of fever, no rescue antibiotics, number of patients / ≧20% reduction of lesion area, number of patients: ECE; for EMA primary endpoint: Investigator-assessed clinical cure / EMA primary endpoint: Investigator-assessed clinical cure, number of patients: PTE
Source text: Complete results were obtained from a phase 3 clinical trial program of oritavancin (SOLO), which investigated the drug for the treatment of acute bacterial skin and skin structure infections (ABSSSI) caused by susceptible gram-positive bacteria, including methicillin-resistant Staphylococcus aureus (MRSA). SOLO I and SOLO II clinical trials were identical multicenter, double-blind, randomized clinical trials.
In SOLO II, all protocol-specified primary and secondary efficacy endpoints were met. […] The efficacy was similar in the overall population and in those patients with microbiologically confirmed MRSA infections.

[3] = SOLO II Phase 3 trial, safety; assay type: in vivo, human
Source text: Safety profiles, measured at any point up to 60 days after treatment, were similar across treatment groups in SOLO II.

[4] = protein binding values from Arhin et al., 2010 (oritavancin) and package inserts (comparators); cited from earlier work
[5] = SOLO I Phase 3 trial, safety assessments (safety population); assay type: in vivo, human
Source text: The study design was consistent with current guidelines from FDA (U.S. Food and Drug Administration. Guidance for Industry Acute Bacterial Skin and Skin Structure Infections: Developing Drugs for Treatment (DRAFT GUIDANCE). Available via Internet at the URL containing: fda.gov/downloads/Drugs/GuidanceComplianceRegulatoryInformation/Guidances/ucm071185.p df) and EMA (European Medicines Agency Committee for Medicinal Products for Human Use. Addendum to the note for guidance on evaluation of medicinal products indicated for treatment of bacterial infections (CHMP/EWP/558/95 REV 2) to address indication-specific clinical data (draft). 2012. Available via Internet at the URL containing: ema.europa.eu/docs/en_GB/document_library/Scientific_guideline/2012/07/WC500129443.pdf) and Foundation for National Institutes of Health guidance was considered for analyses (Talbot G H etl. Clin Infect Dis. 2012. 55(8):1114-1121). The protocol was approved by institutional review boards/ethics committees and all patients provided written informed consent. The study was conducted from January 2011 through October 2012 at 46 study centers in Mexico, Spain, Germany, Romania, Russia, Ukraine, Israel, India, and the United States. […] Aztreonam and metronidazole were permitted for gram-negative and anaerobic cover, respectively.
Safety assessments (Safety Population) included vital signs, electrocardiogram (ECG), clinical chemistry and hematology parameters, reporting of adverse events (AEs) and serious adverse events (SAEs). Treatment-emergent adverse events (TEAEs) were defined as AEs with onset or worsening severity at or after the first dose of study drug through the Safety Follow-up Visit (Day 60+7 days).
For safety assessments, descriptive analyses were performed in the safety population for all safety parameters by treatment group.
The intent-to-treat (ITT) population included all patients randomized into the study. The modified intent-to-treat (mITT) was the primary population for all the efficacy analyses and included all randomized patients who received any study drug. The clinically evaluable (CE) population consisted of all mITT patients who met the inclusion/exclusion criteria, received the full-course of randomized study treatment (for a minimum of 7 days), and had investigator assessment for clinical cure at PTE. The CE population was used to confirm the efficacy analyses. The microbiologically ITT (MicroITT) population consisted of all mITT patients with baseline gram-positive pathogen(s) known to cause ABSSSI and it was used for the secondary efficacy analyses. The microbiologically evaluable (MicroE) population was used to confirm the secondary efficacy analyses and consisted of all patients who were in both the MicroITT and CE populations. The safety population was the primary population for all the safety analyses, and consisted of all patients who were dosed with study drug, irrespective of randomization. Treatment classification was based on the actual treatment received.

[6] = confirmed MRSA, Microbiological ITT
[7] = confirmed MRSA, Microbiological ITT, oritavancin n = 100, vancomycin n = 101
[8] = mITT, oritavancin n = 503, vancomycin n = 502

## CN[C@H](CC(C)C)C(=O)N[C@H]1C(=O)N[C@@H](CC(N)=O)C(=O)N[C@H]2C(=O)N[C@H]3C(=O)N[C@H](C(=O)N[C@H](C(=O)O)c4cc(O)cc(O)c4-c4cc3ccc4O)[C@H](O)c3ccc(c(Cl)c3)Oc3cc2cc(c3O[C@@H]2O[C@H](CO)[C@@H](O)[C@H](O)[C@H]2O[C@H]2C[C@](C)(N)[C@H](O)[C@H](C)O2)Oc2ccc(cc2Cl)[C@H]1O [Vancomycin, vancomycin]
[1]; 57147 (mecC), vancomycin ƒCmax 16 mg/L
  Time to cidality (≧3 log decrease): 6-24 h
[1]; 57147 (mecC), vancomycin ƒCmin 4 mg/L
  Time to cidality (≧3 log decrease): 6-24 h
[1]; 70611 (mecC), vancomycin ƒCmax 16 mg/L
  Time to cidality (≧3 log decrease): 6-24 h
[1]; 70611 (mecC), vancomycin ƒCmin 4 mg/L
  Time to cidality (≧3 log decrease): 6-24 h
[1]; 73348 (mecC), vancomycin ƒCmax 16 mg/L
  Time to cidality (≧3 log decrease): 6-24 h
[1]; 73348 (mecC), vancomycin ƒCmin 4 mg/L
  Time to cidality (≧3 log decrease): 6-24 h
[1]; 73415 (mecC), vancomycin ƒCmax 16 mg/L
  Time to cidality (≧3 log decrease): 6-24 h
[1]; 73415 (mecC), vancomycin ƒCmin 4 mg/L
  Time to cidality (≧3 log decrease): 6-24 h
[1]; 73617 (mecC), vancomycin ƒCmax 16 mg/L
  Time to cidality (≧3 log decrease): 6-24 h
[1]; 73617 (mecC), vancomycin ƒCmin 4 mg/L
  Time to cidality (≧3 log decrease): 6-24 h
[1]; 73829 (mecC), vancomycin ƒCmax 16 mg/L
  Time to cidality (≧3 log decrease): 6-24 h
[1]; 73829 (mecC), vancomycin ƒCmin 4 mg/L
  Time to cidality (≧3 log decrease): 6-24 h
[1]; 75814 (mecC), vancomycin ƒCmax 16 mg/L
  Time to cidality (≧3 log decrease): 6-24 h
[1]; 75814 (mecC), vancomycin ƒCmin 4 mg/L
  Time to cidality (≧3 log decrease): 6-24 h
[1]; 76918 (mecC), vancomycin ƒCmax 16 mg/L
  Time to cidality (≧3 log decrease): 6-24 h
[1]; 76918 (mecC), vancomycin ƒCmin 4 mg/L
  Time to cidality (≧3 log decrease): 6-24 h
[1]; 77431 (mecC), vancomycin ƒCmax 16 mg/L
  Time to cidality (≧3 log decrease): 6-24 h
[1]; 77431 (mecC), vancomycin ƒCmin 4 mg/L
  Time to cidality (≧3 log decrease): 6-24 h
[1]; 77601 (mecC), vancomycin ƒCmax 16 mg/L
  Time to cidality (≧3 log decrease): 6-24 h
[1]; 77601 (mecC), vancomycin ƒCmin 4 mg/L
  Time to cidality (≧3 log decrease): 6-24 h
[1]; 77950 (mecC), vancomycin ƒCmax 16 mg/L
  Time to cidality (≧3 log decrease): 6-24 h
[1]; 77950 (mecC), vancomycin ƒCmin 4 mg/L
  Time to cidality (≧3 log decrease): 6-24 h
[1]; 77964 (mecC), vancomycin ƒCmax 16 mg/L
  Time to cidality (≧3 log decrease): 6-24 h
[1]; 77964 (mecC), vancomycin ƒCmin 4 mg/L
  Time to cidality (≧3 log decrease): 6-24 h
[1]; 78085 (mecC), vancomycin ƒCmax 16 mg/L
  Time to cidality (≧3 log decrease): 6-24 h
[1]; 78085 (mecC), vancomycin ƒCmin 4 mg/L
  Time to cidality (≧3 log decrease): 6-24 h
[1]; 78651 (mecC), vancomycin ƒCmax 16 mg/L
  Time to cidality (≧3 log decrease): 6-24 h
[1]; 78651 (mecC), vancomycin ƒCmin 4 mg/L
  Time to cidality (≧3 log decrease): 6-24 h
[1]; ATCC 29213 (MSSA), vancomycin ƒCmax 16 mg/L
  Time to cidality (≧3 log decrease): 6-24 h
[1]; ATCC 29213 (MSSA), vancomycin ƒCmin 4 mg/L
  Time to cidality (≧3 log decrease): 6-24 h
[1]; ATCC 33591 (mecA), vancomycin ƒCmax 16 mg/L
  Time to cidality (≧3 log decrease): 6-24 h
[1]; ATCC 33591 (mecA), vancomycin ƒCmin 4 mg/L
  Time to cidality (≧3 log decrease): 6-24 h
[1]; ATCC 43300 (mecA), vancomycin ƒCmax 16 mg/L
  Time to cidality (≧3 log decrease): 6-24 h
[1]; ATCC 43300 (mecA), vancomycin ƒCmin 4 mg/L
  Time to cidality (≧3 log decrease): 6-24 h
[1]; all tested strains, both fCmin and fCmax
  Time to achieve 3 log kill: 6 to 24 hours
[2]; [6]
  FDA primary endpoint: Cessation of spread, absence of fever, no rescue antibiotics: 81.2%
  ≧20% reduction of lesion area: 90.1%
  EMA primary endpoint: Investigator-assessed clinical cure: 85.1%
[2]; [7]
  FDA primary endpoint: Cessation of spread, absence of fever, no rescue antibiotics, number of patients: 82
  ≧20% reduction of lesion area, number of patients: 91
  EMA primary endpoint: Investigator-assessed clinical cure, number of patients: 86
[2]; mITT
  FDA primary endpoint: Cessation of spread, absence of fever, no rescue antibiotics: 82.9%
  ≧20% reduction of lesion area: 85.3%
  EMA primary endpoint: Investigator-assessed clinical cure: 80.5%
[2]; [8]
  FDA primary endpoint: Cessation of spread, absence of fever, no rescue antibiotics, number of patients: 416
  ≧20% reduction of lesion area, number of patients: 428
  EMA primary endpoint: Investigator-assessed clinical cure, number of patients: 404
[3]
  Treatment emergent adverse events considered by investigators as related to study drug: 25.5%
[3]; up to 60 days after treatment
  Patients reported to experience at least one adverse event: 50.2%
[4]
  Free Fraction: 0.54
[5]
  Cellulitis SAEs considered new events: 4
  Discontinuation of study drug due to cellulitis: 3 patients
  Discontinuation of study drug due to drug hypersensitivity: 2 patients
  Discontinuation of study drug due to hypersensitivity: 5 patients
  Discontinuation of study drug due to pruritus: 2 patients
  Discontinuation of study drug due to rash: 2 patients
  Discontinuation of study drug due to sepsis: 2 patients
  Discontinuation of study drug due to skin bacterial infection: 2 patients
  Frequency of SAEs: 7.3%
  Histamine-like reactions (Red Man syndrome): 2 patients
  Proportion of patients experiencing a TEAE that led to discontinuation of the study drug: 5.8%
  Skin and subcutaneous tissue adverse events: 19.1%
[5]; all determined unrelated to study drug
  Patients who died during the study: two
[5]; post-hoc analysis
  Infusion site reaction AEs: 7.1%
  Pruritus AEs: 9.1%
[5]; safety population
  Incidence of diarrhea: 3.5%
  Incidence of headache: 7.9%
  Incidence of nausea: 8.9%
  Incidence of vomiting: 3.7%
